Consider 19 compounds from patent publication US20050009820A1, “Thiochromenones used to combat painful conditions and neurodegenerative diseases” (priority 2001, published 2005).

In data set [1] the target is T1, mGluR1 receptor (Homo sapiens, UniProt Q13255).
T1 construct: expressed in transfected cells; host or cells: CHO cells
Put plainly: Determination of the activity on the mGluR1 receptor (luciferase luminescence in mGluR1 receptor-expressing CHO cells stimulated with 1 mM glutamate). Format: cell-based. The conditions noted are these: 1 mM glutamate with the test substance, 37° C., 4 h, luminescence readout. The method, then:
1. Determination of the activity on the mGluR1 receptor
mGluR1 receptor-expressing CHO cells are seeded in 96-well plates (Greiner, Frickenhausen, Germany) (20 000 cells/well) and cultivated in ultra CHO medium (Bio-Whittaker, Walkersville, Md., 10% fetal calf serum) for one day. The substances to be tested are initially dissolved in a concentration of 10^−2 M in 100% DMSO and then diluted to the desired concentration with the culture medium. After being washed once with cell culture medium, the cells are incubated with 1 mM glutamate and simultaneously with the substance to be tested at 37° C. for 4 h. The medium is then aspirated off and the cells are lysed with 75 μl of Triton-luciferase buffer (1% Triton X 100, 10% glycerol, 2 mM DTT, 25 mM Na2HPO4, 25 mM TRIS), (530 μM ATP, 470 μM luciferin, 270 μM CoA, 20 mM tricine, 2.67 mM MgSO4, 33.3 mM DTT, 0.1 mM EDTA, pH 7.8). The luminescence is measured after one minute using a camera (Hamamatsu, Japan). Cells incubated only with glutamate show a marked increase in the luminescence compared with controls, while mGluR1 receptor antagonists reduce this concentration-dependently to below the initial luminscence.

T1 sequence (Q13255 19-1194): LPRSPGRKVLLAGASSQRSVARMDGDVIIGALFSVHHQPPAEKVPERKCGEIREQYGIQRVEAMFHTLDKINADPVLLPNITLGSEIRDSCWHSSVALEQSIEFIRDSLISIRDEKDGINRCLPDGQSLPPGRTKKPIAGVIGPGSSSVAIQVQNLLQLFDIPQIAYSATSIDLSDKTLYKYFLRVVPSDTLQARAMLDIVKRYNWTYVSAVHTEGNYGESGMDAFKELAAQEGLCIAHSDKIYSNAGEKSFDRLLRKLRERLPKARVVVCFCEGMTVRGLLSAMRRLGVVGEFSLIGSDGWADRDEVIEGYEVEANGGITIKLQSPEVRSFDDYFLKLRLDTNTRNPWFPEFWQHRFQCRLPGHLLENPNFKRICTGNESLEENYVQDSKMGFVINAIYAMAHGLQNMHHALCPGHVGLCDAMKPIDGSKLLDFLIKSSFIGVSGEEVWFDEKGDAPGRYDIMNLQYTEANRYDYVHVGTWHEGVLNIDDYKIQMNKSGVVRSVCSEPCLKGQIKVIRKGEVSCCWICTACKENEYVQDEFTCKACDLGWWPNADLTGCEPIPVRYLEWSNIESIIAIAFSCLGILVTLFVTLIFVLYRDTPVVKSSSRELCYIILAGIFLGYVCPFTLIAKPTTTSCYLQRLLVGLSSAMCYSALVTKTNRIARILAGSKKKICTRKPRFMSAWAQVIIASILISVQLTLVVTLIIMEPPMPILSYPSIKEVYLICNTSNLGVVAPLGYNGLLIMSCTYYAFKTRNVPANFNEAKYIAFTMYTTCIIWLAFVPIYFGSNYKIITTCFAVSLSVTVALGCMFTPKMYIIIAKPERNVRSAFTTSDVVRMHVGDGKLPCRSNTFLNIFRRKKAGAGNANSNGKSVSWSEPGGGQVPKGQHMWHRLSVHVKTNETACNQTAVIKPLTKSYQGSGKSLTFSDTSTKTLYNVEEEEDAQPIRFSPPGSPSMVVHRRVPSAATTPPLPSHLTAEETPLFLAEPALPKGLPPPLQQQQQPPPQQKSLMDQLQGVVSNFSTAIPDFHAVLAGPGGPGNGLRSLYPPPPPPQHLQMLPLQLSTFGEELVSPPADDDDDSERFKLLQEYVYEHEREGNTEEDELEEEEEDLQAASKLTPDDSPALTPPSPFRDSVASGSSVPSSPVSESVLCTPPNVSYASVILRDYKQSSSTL

In data set [1], `CCC1CCc2c(sc3cc(-c4nnn[nH]4)ccc3c2=O)C1` (stereo not shown) [Example 1-3, 3-Ethyl-6-(1H-tetrazol-5-yl)-1,2,3,4-tetrahydro-9H-thioxanthen-9-one] registered an IC50 of 9 nM.
On to `CCC1CCc2c(sc3cc(-c4cccs4)ccc3c2=O)C1` (stereo not shown) [Example 1-10, 3-Ethyl-6-(2-thienyl)-1,2,3,4-tetrahydro-9H-thioxanthen-9-one], for which, in data set [1], the IC50 amounted to 97 nM.
`CC1(C)CCc2c(sc3cc(-c4cccc(C#N)c4)ccc3c2=O)C1` [Example 1-27, 3-(3,3-Dimethyl-9-oxo-2,3,4,9-tetrahydro-1H-thioxanthen-6-yl)benzonitrile] gave an IC50 in data set [1] of 23 nM.
`CCC1CCc2c(sc3cc(-c4cccc(C#N)c4)ccc3c2=O)C1` (stereo not shown) [Example 1-29, 3-(3-Ethyl-9-oxo-2,3,4,9-tetrahydro-1H-thioxanthen-6-yl)benzonitrile] registered an IC50 in data set [1] of 21 nM.
The compound `CC1(C)CCc2c(sc3cc(-c4cccnc4)ccc3c2=O)C1` [Example 1-31, 3,3-Dimnethyl-6-(3-pyridinyl)-1,2,3,4-tetrahydro-9H-thioxanthen-9-one] yielded an IC50 in data set [1] of 31 nM.
Consider `CCC1CCc2c(sc3cc(-c4noc(=O)[nH]4)ccc3c2=O)C1` (stereo not shown) [Example 1-34, 3-(3-Ethyl-9-oxo-2,3,4,9-tetrahydro-1H-thioxanthen-6-yl)-1,2,4-oxadiazol-5(4H)-one], for which 81 nM corresponded to half-maximal inhibition in data set [1] (IC50).
For the compound `CC1(C)CCc2c(sc3cc(NS(C)(=O)=O)ccc3c2=O)C1` [Example 2-11, N-(3,3-Dimethyl-9-oxo-2,3,4,9-tetrahydro-1H-thioxanthen-6-yl)methanesulfonamide], the melting point came out at 272 °C.
For the compound `CC1(C)CCc2c(sc3cc(NS(=O)(=O)c4ccccc4)ccc3c2=O)C1` [Example 2-12, N-(3,3-Dimethyl-9-oxo-2,3,4,9-tetrahydro-1H-thioxanthen-6-yl)benzenesulfonamide], the melting point came out at 231 °C.
For the compound `Cc1ccc(S(=O)(=O)Nc2ccc3c(=O)c4c(sc3c2)CC(C)(C)CC4)cc1` [Example 2-13, N-(3,3-Dimethyl-9-oxo-2,3,4,9-tetrahydro-1H-thioxanthen-6-yl)-4-methylbenzenesulfonamide], the melting point was 279 °C.
The compound `CC1(C)CCc2c(sc3cc(OS(=O)(=O)Cc4ccccc4OC(F)(F)F)ccc3c2=O)C1` [Example 2-14, 3,3-Dimethyl-9-oxo-2,3,4,9-tetrahydro-1H-thioxanthen-6-yl [2-(trifluoromethoxy)-phenyl]methanesulfonate] returned a melting point of 249 °C.
Still for that read-out and setting: the value for `CC(C)S(=O)(=O)Nc1ccc2c(=O)c3c(sc2c1)CC(C)(C)CC3` [Example 2-15, N-(3,3-Dimethyl-9-oxo-2,3,4,9-tetrahydro-1H-thioxanthen-6-yl)isopropylsulfonamide] was 263 °C; that for `CC1(C)CCc2c(sc3cc(-n4cccc4)ccc3c2=O)C1` [Example 2-24, 3,3-Dimethyl-6-(1H-pyrrol-1-yl)-1,2,3,4-tetrahydro-9H-thioxanthen-9-one] was 169 °C; that for `CCC1CCc2c(sc3cc(-n4cccc4)ccc3c2=O)C1` (stereo not shown) [Example 2-25, 3-Ethyl-6-(1H-pyrrol-1-yl)-1,2,3,4-tetrahydro-9H-thioxanthen-9-one] was 145 °C.
In data set [1], `CCC1CCc2c(sc3cc(N(C)CCOC)ccc3c2=O)C1` (stereo not shown) [Example 3-21, 3-Ethyl-6-[(2-methoxyethyl)(methyl)amino]-1,2,3,4-tetrahydro-9H-thio-xanthen-9-one] registered an IC50 of 22 nM.
On the same count and under the same terms, in the case of `CCC1CCc2c(sc3cc(N4CCCCC4)ccc3c2=O)C1` (stereo not shown) [Example 3-22, 3-Ethyl-6-(1-piperidinyl)-1,2,3,4-tetrahydro-9H-thioxanthen-9-one] it was 13 nM; in that of `CCC1CCc2c(sc3cc(N4CCCCC4)c(F)cc3c2=O)C1` (stereo not shown) [Example 3-23, 3-Ethyl-7-fluoro-6-(1-piperidinyl)-1,2,3,4-tetrahydro-9H-thioxanthen-9-one], 28 nM; in that of `CCC(=O)Nc1ccc2c(=O)c3c(sc2c1)CC(CC)CC3` (stereo not shown) [Example 3-49, N-(3-Ethyl-9-oxo-2,3,4,9-tetrahydro-1H-thioxanthen-6-yl)propanamide], 35 nM.
With `CCC1CCc2c(sc3cc(-c4cncnc4)ccc3c2=O)C1` (stereo not shown) [Example 3-55], in data set [1], the IC50 worked out at 35 nM.
Take `CCC1CCc2c(sc3cc(N(C)S(=O)(=O)c4cccc(C#N)c4)ccc3c2=O)C1` (stereo not shown) [Example 4-8, 3-Cyano-N-(3-ethyl-9-oxo-2,3,4,9-tetrahydro-1-thioxanthen-6-yl)-N-methylbenzenesulfonamide]: in data set [1], the half-maximal inhibitory concentration (IC50) was determined as 25 nM.

For orientation: IC50 means the concentration at which inhibition is half-maximal. One may read the melting point as the temperature of the solid-liquid transition.
